Measurements: the supplement of paper PMC10307832

Tests used:
Test in all cases: relative viability (nuclei count vs DMSO), 5 days (fraction); higher = more cells survive
[1] = compound: Cn1c(Nc2ccc(C(F)(F)F)cc2)nc2cc(Oc3ccnc(-c4ncc(C(F)(F)F)[nH]4)c3)ccc21 [RAF265] + CS(=O)(=O)N1CCN(Cc2cc3nc(-c4cccc5[nH]ncc45)nc(N4CCOCC4)c3s2)CC1 [Pictilisib] (partner 1 µM)
How it was run: (§1)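 Relative viability is defined as nuclei in treated wells over nuclei in vehicle wells. Duplicate plates were run and medians reported. Lung cancer cell lines in 1536-well plates were dosed by pin tool one day after seeding, with one drug or with a fixed anchor-drug dose plus five library-drug doses (not always all listed) in √10 steps, and nuclei were counted after 5 days.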

[2] = compound: Cc1ccc(-n2nc(C(C)(C)C)cc2NC(=O)Nc2ccc(OCCN3CCOCC3)c3ccccc23)cc1 [Doramapimod] + CS(=O)(=O)N1CCN(Cc2cc3nc(-c4cccc5[nH]ncc45)nc(N4CCOCC4)c3s2)CC1 [Pictilisib] (partner 1 µM)
How it was run: as §1

[3] = compound: C1=CC=C2C(=C1)C=CC(=C2SSC3=C(C=CC4=CC=CC=C43)O)O [IPA-3] + CS(=O)(=O)N1CCN(Cc2cc3nc(-c4cccc5[nH]ncc45)nc(N4CCOCC4)c3s2)CC1 [Pictilisib] (partner 1 µM)
How it was run: as §1

[4] = compound: C1=CC=C2C(=C1)C=CC(=C2SSC3=C(C=CC4=CC=CC=C43)O)O [IPA-3] + Nc1ncn([C@H]2C[C@H](O)[C@@H](CO)O2)c(=O)n1 [Decitabine] (partner 2 µM)
How it was run: as §1

Cell Line | relative viability ([1]; first compound 0.01 µM) | relative viability ([1]; first compound 0.03162 µM) | relative viability ([1]; first compound 0.1 µM) | relative viability ([1]; first compound 0.3162 µM) | relative viability ([1]; first compound 1 µM) | relative viability ([2]; first compound 0.02 µM) | relative viability ([2]; first compound 0.06325 µM) | relative viability ([2]; first compound 0.2 µM) | relative viability ([2]; first compound 0.6325 µM) | relative viability ([2]; first compound 2 µM) | relative viability ([3]; first compound 0.2 µM) | relative viability ([3]; first compound 0.6325 µM) | relative viability ([3]; first compound 2 µM) | relative viability ([3]; first compound 6.325 µM) | relative viability ([3]; first compound 20 µM) | relative viability ([4]; first compound 0.2 µM) | relative viability ([4]; first compound 0.6325 µM) | relative viability ([4]; first compound 2 µM) | relative viability ([4]; first compound 6.325 µM) | relative viability ([4]; first compound 20 µM)
LU99A | 0.324 | 0.269 | 0.233 | 0.21 | 0.187 | 0.348 | 0.303 | 0.311 | 0.307 | 0.263 | 0.353 | 0.317 | 0.333 | 0.321 | 0.277 | 0.974 | 0.813 | 0.881 | 0.867 | 0.879
BEN | 0.627 | 0.696 | 0.69 | 0.625 | 0.55 | 0.578 | 0.501 | 0.524 | 0.559 | 0.531 | 0.6 | 0.596 | 0.66 | 0.697 | 0.601 | 0.612 | 0.824 | 0.758 | 0.712 | 0.665
SK-LU-1 | 0.688 | 0.422 | 0.41 | 0.297 | 0.27 | 0.511 | 0.627 | 0.657 | 0.726 | 0.603 | 0.617 | 0.612 | 0.579 | 0.712 | 0.645 | 0.708 | 0.497 | 0.658 | 0.689 | 0.651
NCI-H1975 | 0.287 | 0.213 | 0.162 | 0.155 | 0.103 | 0.324 | 0.32 | 0.315 | 0.373 | 0.294 | 0.342 | 0.284 | 0.316 | 0.321 | 0.259 | 0.472 | 0.368 | 0.357 | 0.398 | 0.356
RERF-LC-KJ | 0.49 | 0.236 | 0.545 | 0.42 | 0.23 | 0.569 | 0.536 | 0.56 | 0.581 | 0.55 | 0.626 | 0.501 | 0.537 | 0.38 | 0.486 | 0.896 | 0.639 | 0.701 | 0.704 | 0.689
A549 | 0.476 | 0.498 | 0.391 | 0.235 | 0.0846 | 0.533 | 0.492 | 0.522 | 0.497 | 0.421 | 0.607 | 0.445 | 0.713 | 0.483 | 0.696 | 0.379 | 0.278 | 0.128 | 0.274 | 0.179
NCI-H441 | 0.572 | 0.466 | 0.304 | 0.261 | 0.206 | 0.451 | 0.323 | 0.417 | 0.44 | 0.394 | 0.479 | 0.457 | 0.41 | 0.462 | 0.427 | 0.268 | 0.257 | 0.205 | 0.234 | 0.21
LCLC-103H | 0.616 | 0.615 | 0.638 | 0.431 | 0.422 | 0.57 | 0.633 | 0.64 | 0.789 | 0.521 | 0.572 | 0.596 | 0.533 | 0.578 | 0.705 | 0.703 | 0.684 | 0.749 | 0.748 | 0.638
HCC-78 | 0.224 | 0.216 | 0.291 | 0.171 | 0.145 | 0.224 | 0.208 | 0.224 | 0.173 | 0.184 | 0.23 | 0.218 | 0.229 | 0.229 | 0.282 | 0.74 | 0.665 | 0.618 | 0.548 | 0.649
NCI-H1915 | 0.965 | 0.914 | 0.705 | 0.37 | 0.247 | 0.945 | 0.932 | 0.989 | 0.87 | 0.785 | 0.956 | 0.987 | 0.903 | 0.966 | 0.933 | 0.277 | 0.279 | 0.248 | 0.262 | 0.245
